{"source": "patent US8741944B2", "about": "“Anti-infective agents against intracellular pathogens” (priority 2007, dated 2014)", "key": {"ACHN (Renal Cancer)": {"test_system": "ACHN (Renal Cancer)", "test": "NCI DTP tumor cell line screen (SRB), ACHN", "protocol": "(§1) For a typical screening experiment, cells are inoculated into 96 well microtiter plates in 100 μL at plating densities ranging from 5,000 to 40,000 cells/well depending on the doubling time of individual cell lines. After cell inoculation, the microtiter plates are incubated at 37° C., 5% CO2, 95% air and 100% relative humidity for 24 h prior to addition of experimental drugs.\n(§2) After 24 h, two plates of each cell line are fixed in situ with TCA, to represent a measurement of the cell population for each cell line at the time of drug addition (Tz). Experimental drugs are solubilized in dimethyl sulfoxide at 400-fold the desired final maximum test concentration and stored frozen prior to use. At the time of drug addition, an aliquot of frozen concentrate is thawed and diluted to twice the desired final maximum test concentration with complete medium containing 50 μg/ml gentamicin. Additional four, 10-fold or ½ log serial dilutions are made to provide a total of five drug concentrations plus control. Aliquots of 100 μl of these different drug dilutions are added to the appropriate microtiter wells already containing 100 μl of medium, resulting in the required final drug concentrations.\n(§3) Following drug addition, the plates are incubated for an additional 48 h at 37° C., 5% CO2, 95% air, and 100% relative humidity. For adherent cells, the assay is terminated by the addition of cold TCA. Cells are fixed in situ by the gentle addition of 50 μl of cold 50% (w/v) TCA (final concentration, 10% TCA) and incubated for 60 minutes at 4° C. The supernatant is discarded, and the plates are washed five times with tap water and air dried. Sulforhodamine B (SRB) solution (1001) at 0.4% (w/v) in 1% acetic acid is added to each well, and plates are incubated for 10 minutes at room temperature. After staining, unbound dye is removed by washing five times with 1% acetic acid and the plates are air dried. Bound stain is subsequently solubilized with 10 mM trizma base, and the absorbance is read on an automated plate reader at a wavelength of 515 nm. For suspension cells, the methodology is the same except that the assay is terminated by fixing settled cells at the bottom of the wells by gently adding 50 μl of 80% TCA (final concentration, 16% TCA). Using the seven absorbance measurements [time zero, (Tz), control growth, (C), and test growth in the presence of drug at the five concentration levels (Ti)], the percentage growth is calculated at each of the drug concentrations levels. Percentage growth inhibition is calculated as: [(Ti−Tz)/(C−Tz)]×100 for concentrations for which Ti>/=Tz [(Ti−Tz)/Tz]×100 for concentrations for which Ti<Tz\n(§4) Three dose response parameters are calculated for each experimental agent. […] The drug concentration resulting in total growth inhibition (TGI) is calculated from Ti=Tz. […] Values are calculated for each of these three parameters if the level of activity is reached; however, if the effect is not reached or is exceeded, the value for that parameter is expressed as greater or less than the maximum or minimum concentration tested."}, "CCRF-CEM (Leukemia)": {"test_system": "CCRF-CEM (Leukemia)", "test": "NCI DTP tumor cell line screen (SRB), CCRF-CEM", "protocol": "as §1, §2, §3, §4"}, "SN12C (Renal Cancer)": {"test_system": "SN12C (Renal Cancer)", "test": "NCI DTP tumor cell line screen (SRB), SN12C", "protocol": "as §1, §2, §3, §4"}, "LOX IMVI (Melanoma)": {"test_system": "LOX IMVI (Melanoma)", "test": "NCI DTP tumor cell line screen (SRB), LOX IMVI", "protocol": "as §1, §2, §3, §4"}, "[1]": {"test_system": "HOP-92 (Non-Small Cell Lung Cancer)", "test": "NCI DTP tumor cell line screen (SRB), HOP-92", "protocol": "as §1, §2, §3, §4"}, "UACC-62 (Melanoma)": {"test_system": "UACC-62 (Melanoma)", "test": "NCI DTP tumor cell line screen (SRB), UACC-62", "protocol": "as §1, §2, §3, §4"}, "RXF 393 (Renal Cancer)": {"test_system": "RXF 393 (Renal Cancer)", "test": "NCI DTP tumor cell line screen (SRB), RXF 393", "details": "RXF 393", "protocol": "as §1, §2, §3, §4"}, "SK-MEL-28 (Melanoma)": {"test_system": "SK-MEL-28 (Melanoma)", "test": "NCI DTP tumor cell line screen (SRB), SK-MEL-28", "protocol": "as §1, §2, §3, §4"}}}
{"smiles": "NCC(=O)Nc1ccc(-n2nc(C(F)(F)F)cc2-c2ccc3c(ccc4ccccc43)c2)cc1", "note": "[Compound 70, 2-Amino-N-{4-[5-(2-phenanthrenyl)-3-(trifluoromethyl)-1H-pyrazol-1-yl]-phenyl}-acetamide]", "values": [{"measurement": "TGI", "setting": "ACHN (Renal Cancer)", "value": "3.45E−06"}, {"measurement": "Mean Optical Densities", "setting": "ACHN (Renal Cancer); Log10 Concentration −4.0", "value": 0.313}, {"measurement": "Mean Optical Densities", "setting": "ACHN (Renal Cancer); Log10 Concentration −5.0", "value": 0.150}, {"measurement": "Percent Growth", "setting": "ACHN (Renal Cancer); Log10 Concentration −5.0", "value": "−60", "unit": "%"}, {"measurement": "Mean Optical Densities", "setting": "ACHN (Renal Cancer); Log10 Concentration −6.0", "value": 0.829}, {"measurement": "Percent Growth", "setting": "ACHN (Renal Cancer); Log10 Concentration −6.0", "value": 70, "unit": "%"}, {"measurement": "Mean Optical Densities", "setting": "ACHN (Renal Cancer); Log10 Concentration −7.0", "value": 1.037}, {"measurement": "Percent Growth", "setting": "ACHN (Renal Cancer); Log10 Concentration −7.0", "value": 102, "unit": "%"}, {"measurement": "Mean Optical Densities", "setting": "ACHN (Renal Cancer); Log10 Concentration −8.0", "value": 0.985}, {"measurement": "Percent Growth", "setting": "ACHN (Renal Cancer); Log10 Concentration −8.0", "value": 94, "unit": "%"}, {"measurement": "TGI", "setting": "CCRF-CEM (Leukemia)", "value": "2.49E−06"}, {"measurement": "Mean Optical Densities", "setting": "CCRF-CEM (Leukemia); Log10 Concentration −4.0", "value": 0.194}, {"measurement": "Mean Optical Densities", "setting": "CCRF-CEM (Leukemia); Log10 Concentration −5.0", "value": 0.168}, {"measurement": "Percent Growth", "setting": "CCRF-CEM (Leukemia); Log10 Concentration −5.0", "value": "−43", "unit": "%"}, {"measurement": "Mean Optical Densities", "setting": "CCRF-CEM (Leukemia); Log10 Concentration −6.0", "value": 0.523}, {"measurement": "Percent Growth", "setting": "CCRF-CEM (Leukemia); Log10 Concentration −6.0", "value": 28, "unit": "%"}, {"measurement": "Mean Optical Densities", "setting": "CCRF-CEM (Leukemia); Log10 Concentration −7.0", "value": 0.946}, {"measurement": "Percent Growth", "setting": "CCRF-CEM (Leukemia); Log10 Concentration −7.0", "value": 81, "unit": "%"}, {"measurement": "Percent Growth", "setting": "CCRF-CEM (Leukemia); Log10 Concentration −8.0", "value": 74, "unit": "%"}, {"measurement": "TGI", "setting": "SN12C (Renal Cancer)", "value": "3.51E−06"}, {"measurement": "Mean Optical Densities", "setting": "SN12C (Renal Cancer); Log10 Concentration −4.0", "value": 0.308}, {"measurement": "Mean Optical Densities", "setting": "SN12C (Renal Cancer); Log10 Concentration −5.0", "value": 0.203}, {"measurement": "Percent Growth", "setting": "SN12C (Renal Cancer); Log10 Concentration −5.0", "value": "−65", "unit": "%"}, {"measurement": "Mean Optical Densities", "setting": "SN12C (Renal Cancer); Log10 Concentration −6.0", "value": 1.093}, {"measurement": "Percent Growth", "setting": "SN12C (Renal Cancer); Log10 Concentration −6.0", "value": 78, "unit": "%"}, {"measurement": "Mean Optical Densities", "setting": "SN12C (Renal Cancer); Log10 Concentration −7.0", "value": 1.194}, {"measurement": "Percent Growth", "setting": "SN12C (Renal Cancer); Log10 Concentration −7.0", "value": 94, "unit": "%"}, {"measurement": "Mean Optical Densities", "setting": "SN12C (Renal Cancer); Log10 Concentration −8.0", "value": 1.209}, {"measurement": "Percent Growth", "setting": "SN12C (Renal Cancer); Log10 Concentration −8.0", "value": 96, "unit": "%"}, {"measurement": "TGI", "setting": "LOX IMVI (Melanoma)", "value": "3.07E−06"}, {"measurement": "Mean Optical Densities", "setting": "LOX IMVI (Melanoma); Log10 Concentration −4.0", "value": 0.352}, {"measurement": "Mean Optical Densities", "setting": "LOX IMVI (Melanoma); Log10 Concentration −5.0", "value": 0.176}, {"measurement": "Percent Growth", "setting": "LOX IMVI (Melanoma); Log10 Concentration −5.0", "value": "−50", "unit": "%"}, {"measurement": "Mean Optical Densities", "setting": "LOX IMVI (Melanoma); Log10 Concentration −6.0", "value": 0.742}, {"measurement": "Percent Growth", "setting": "LOX IMVI (Melanoma); Log10 Concentration −6.0", "value": 48, "unit": "%"}, {"measurement": "Mean Optical Densities", "setting": "LOX IMVI (Melanoma); Log10 Concentration −7.0", "value": 0.974}, {"measurement": "Percent Growth", "setting": "LOX IMVI (Melanoma); Log10 Concentration −7.0", "value": 76, "unit": "%"}, {"measurement": "Mean Optical Densities", "setting": "LOX IMVI (Melanoma); Log10 Concentration −8.0", "value": 1.204}, {"measurement": "Percent Growth", "setting": "LOX IMVI (Melanoma); Log10 Concentration −8.0", "value": 105, "unit": "%"}, {"measurement": "TGI", "setting": "[1]", "value": "3.07E−06"}, {"measurement": "Mean Optical Densities", "setting": "[1]; Log10 Concentration −4.0", "value": 0.267}, {"measurement": "Mean Optical Densities", "setting": "[1]; Log10 Concentration −5.0", "value": 0.095}, {"measurement": "Percent Growth", "setting": "[1]; Log10 Concentration −5.0", "value": "−91", "unit": "%"}, {"measurement": "Mean Optical Densities", "setting": "[1]; Log10 Concentration −6.0", "value": 1.465}, {"measurement": "Percent Growth", "setting": "[1]; Log10 Concentration −6.0", "value": 87, "unit": "%"}, {"measurement": "Mean Optical Densities", "setting": "[1]; Log10 Concentration −7.0", "value": 1.474}, {"measurement": "Percent Growth", "setting": "[1]; Log10 Concentration −7.0", "value": 89, "unit": "%"}, {"measurement": "Mean Optical Densities", "setting": "[1]; Log10 Concentration −8.0", "value": 1.509}, {"measurement": "Percent Growth", "setting": "[1]; Log10 Concentration −8.0", "value": 96, "unit": "%"}, {"measurement": "TGI", "setting": "UACC-62 (Melanoma)", "value": "3.15E−06"}, {"measurement": "Mean Optical Densities", "setting": "UACC-62 (Melanoma); Log10 Concentration −4.0", "value": 0.364}, {"measurement": "Mean Optical Densities", "setting": "UACC-62 (Melanoma); Log10 Concentration −5.0", "value": 0.137}, {"measurement": "Percent Growth", "setting": "UACC-62 (Melanoma); Log10 Concentration −5.0", "value": "−80", "unit": "%"}, {"measurement": "Mean Optical Densities", "setting": "UACC-62 (Melanoma); Log10 Concentration −6.0", "value": 1.407}, {"measurement": "Percent Growth", "setting": "UACC-62 (Melanoma); Log10 Concentration −6.0", "value": 79, "unit": "%"}, {"measurement": "Mean Optical Densities", "setting": "UACC-62 (Melanoma); Log10 Concentration −7.0", "value": 1.546}, {"measurement": "Percent Growth", "setting": "UACC-62 (Melanoma); Log10 Concentration −7.0", "value": 94, "unit": "%"}, {"measurement": "Mean Optical Densities", "setting": "UACC-62 (Melanoma); Log10 Concentration −8.0", "value": 1.649}, {"measurement": "Percent Growth", "setting": "UACC-62 (Melanoma); Log10 Concentration −8.0", "value": 105, "unit": "%"}, {"measurement": "Mean Optical Densities", "setting": "RXF 393 (Renal Cancer); Log10 Concentration −4.0", "value": 0.441}, {"measurement": "Mean Optical Densities", "setting": "RXF 393 (Renal Cancer); Log10 Concentration −5.0", "value": 0.177}, {"measurement": "Percent Growth", "setting": "RXF 393 (Renal Cancer); Log10 Concentration −5.0", "value": "−56", "unit": "%"}, {"measurement": "Mean Optical Densities", "setting": "RXF 393 (Renal Cancer); Log10 Concentration −6.0", "value": 0.628}, {"measurement": "Percent Growth", "setting": "RXF 393 (Renal Cancer); Log10 Concentration −6.0", "value": 56, "unit": "%"}, {"measurement": "Mean Optical Densities", "setting": "RXF 393 (Renal Cancer); Log10 Concentration −7.0", "value": 0.700}, {"measurement": "Mean Optical Densities", "setting": "RXF 393 (Renal Cancer); Log10 Concentration −8.0", "value": 0.766}, {"measurement": "TGI", "setting": "SK-MEL-28 (Melanoma)", "value": "2.64E−06"}, {"measurement": "Mean Optical Densities", "setting": "SK-MEL-28 (Melanoma); Log10 Concentration −4.0", "value": 0.218}, {"measurement": "Mean Optical Densities", "setting": "SK-MEL-28 (Melanoma); Log10 Concentration −5.0", "value": 0.071}, {"measurement": "Percent Growth", "setting": "SK-MEL-28 (Melanoma); Log10 Concentration −5.0", "value": "−87", "unit": "%"}, {"measurement": "Mean Optical Densities", "setting": "SK-MEL-28 (Melanoma); Log10 Concentration −6.0", "value": 1.130}, {"measurement": "Percent Growth", "setting": "SK-MEL-28 (Melanoma); Log10 Concentration −6.0", "value": 63, "unit": "%"}, {"measurement": "Mean Optical Densities", "setting": "SK-MEL-28 (Melanoma); Log10 Concentration −7.0", "value": 1.320}, {"measurement": "Percent Growth", "setting": "SK-MEL-28 (Melanoma); Log10 Concentration −7.0", "value": 83, "unit": "%"}, {"measurement": "Mean Optical Densities", "setting": "SK-MEL-28 (Melanoma); Log10 Concentration −8.0", "value": 1.426}]}
